The source of these data is patent US11384121B2, “Creation of peptide-based anti-tumor agent” (National University Corporation Hokkaido University, priority 2018, dated 2022).

Data set [1] concerns HIF-1a. The conditions noted are these: Non Patent Literature 2; cited from earlier work.
Data set [2] has as its system activated caspase-3. Put plainly: Detection of activated caspase-3 (Western blotting). The conditions noted are these: 10 ng/mL, 48 hours; SW620; actin as endogenous control. The data set is classed as cell-based. As to the method: The SW620 cell line aliquoted into a 6-well plate at 2.0×10^3 cells/well was cultured for 24 hours, and compound 12 was then added to the culture solution to reach a final concentration of 10 ng/mL to initiate incubation, and the plate was taken out after 48 hours.
Proteins were collected by using a commercially available protein collection kit (mammalian cell extraction kit (BioVision, Inc.)) in accordance with a protocol provided by the manufacturer, and activated caspase-3 was quantified through Western blotting with a specific antibody to cleaved caspase-3 (Cell Signaling Technology, Inc.). Actin was used as an endogenous control. No compound was added for a control group, and echinomycin was added for a group with administration of echinomycin so that the final concentration of echinomycin reached 10 ng/mL, and the above-described operations were performed.
(§1) Each of the control group, group with administration of echinomycin, and group with administration of compound 12 was n=4.

The conditions of data set [3]: Non Patent Literature 1; clinical development abandoned; cited from earlier work.
Data set [4] can be described thus: Tumor-cell-transplanted animal model assay 2, body weight variation. Format: in vivo, BALB/c nude mice. The conditions noted are these: MIA PaCa-2 transplanted mice. As to the method: Anti-asialo GM1 (rabbit) (Wako Pure Chemical Industries, Ltd.) was intraperitoneally administered to BALB/c nude mice, and the mice were grown at room temperature for 2 hours. To the back of each BALB/c nude mouse, 2×10^6 cells of the MIA PaCa-2 cell line were subcutaneously injected for transplantation. Compound 11 or compound 12 in a dose of 500 ng was intraperitoneally administered to each mouse on each day from the day following the date of transplantation, and body weight was measured on each day (n=5 for each group). No compound was administered to a control group, and echinomycin in a dose of 400 ng was intraperitoneally administered to each mouse in a group with administration of echinomycin on each day, and body weight was measured at the date of slaughter (n=5 for each group).

Data set [5] deals with SW620 cell line. Put plainly: Cell death inducibility, TUNEL method. Format: cell-based. The conditions noted are these: 10 ng/mL, 48 hours. The protocol:
The SW620 cell line aliquoted into a 4-well glass chamber slide at 5.0×10^4 cells/well was cultured for 24 hours, and compound 12 was then added to the culture solution to reach a final concentration of 10 ng/mL to initiate incubation, and the slide was taken out after 48 hours.
By using a commercially available cell death detection kit utilizing a TUNEL (TdT-mediated dUTP nick-end labeling) method (In Situ Cell Death Detection Kit and TMR red (Roche Diagnostic)) in accordance with a protocol provided by the manufacturer, TUNEL-stained cells (i.e., cells that underwent cell death) were detected and counted. No compound was added for a control group, and echinomycin was added for a group with administration of echinomycin so that the final concentration of echinomycin reached 10 ng/mL, and the above-described operations were performed.
as §1

Data set [6] deals with SW620 cell line. Put plainly: SRB assay, colorectal cancer cell (SW620 cell) line. The data set is classed as cell-based. As to the method:
(§2) Used for cells were an SW620 cell line (ATCC), which was a colorectal cancer cell line, and an MIA PaCa-2 cell line (ATCC) and a Suit2 cell line (Health Science Research Resources Bank), which were a pancreatic cancer cell line.
(§3) Culture of the MIA PaCa-2 cell line and the Suit2 cell line was performed by using a DMEM with 10% FBS, 2 mM L-glutamine, 50 U/mL penicillin, and 50 μg/mL streptomycin. Culture of the SW620 cell line was performed by using RPMI1640 with 10% FBS, 2 mM L-glutamine, 50 U/mL penicillin, and 50 μg/mL streptomycin.
(§4) Test cells aliquoted into a 96-well plate at 1.0×10^4 cells/well were cultured for 24 hours, and compound 11 or compound 12 was then added to the culture solution to reach a final concentration of 1 ng/mL, 10 ng/mL, 100 ng/mL, or 1000 ng/mL to initiate incubation, and the plate was taken out after 24 hours, 48 hours, 72 hours, and 96 hours (n=5 for each case).
(§5) To each well of the plate taken out, 100 μL of 10% trichloroacetic acid (TCA) was added, the plate was left to stand at 4° C. for 1 hour, and washed four times with pure water. […] Cell density after each incubation time was determined by measuring OD at 510 nm for stained cells lysed in 10 mM Tris buffer solution. […]
In general terms: Sulforhodamine B stains cellular protein and so reports cell mass.

The test system of data set [7] is Suit2 cell line. Put plainly: SRB assay, pancreatic cancer cell (SuiT-2 cell) line. Format: cell-based. The conditions noted are these: 100 ng/mL or more. As to the method:
as §2, §3, §4, §5

Data set [8] concerns SW620 cell line transplanted. Put plainly: Tumor-cell-transplanted animal model assay 1, size of transplanted tumor, SW620. The data set is classed as in vivo, BALB/c nude mice. As to the method:
(§6) Anti-asialo GM1 (rabbit) (Wako Pure Chemical Industries, Ltd.) was intraperitoneally administered to BALB/c nude mice, and the mice were grown at room temperature for 2 hours. To the back of each BALB/c nude mouse, 2×10^6 test cells were subcutaneously injected for transplantation. Compound 11 or compound 12 in a dose of 50 ng or 500 ng or in a dose of 40 ng or 400 ng was intraperitoneally administered to each mouse on each day, from the day following the date of transplantation for mice with the SW620 cell line transplanted, from the day 1 week after the date of transplantation for mice with the MIA PaCa-2 cell line transplanted, and the growth of a tumor mass in each transplantation site was observed. No compound was administered to a control group, and echinomycin in a dose of 40 ng or 400 ng was intraperitoneally administered to each mouse in groups with administration of echinomycin on each day.
(§7) Each of the control group, groups with administration of echinomycin, groups with administration of compound 11, and groups with administration of compound 12 was n=5.

For data set [9], the system named is MIA PaCa-2 cell line. As to the kind of experiment: SRB assay, pancreatic cancer cell (MIA PaCa-2 cell) line. Format: cell-based. The protocol: as §2, §3, §4, §5
The subject of data set [10] is MIA PaCa-2 cell line transplanted. Put plainly: Tumor-cell-transplanted animal model assay 1, size of transplanted tumor, MIA PaCa-2. Format: in vivo, BALB/c nude mice. The conditions noted are these: MIA PaCa-2 (FIG. 2-1). As to the method: as §6, §7
Setting [11] is: 500 ng intraperitoneally each day.

For the compound `CS[C@H]1SC[C@H]2C(=O)N(C)[C@@H](C(C)C)C(=O)OC[C@@H](NC(=O)c3cnc4ccccc4n3)C(=O)N[C@@H](C)C(=O)N(C)[C@@H]1C(=O)N(C)[C@@H](C(C)C)C(=O)OC[C@@H](NC(=O)c1cnc3ccccc3n1)C(=O)N[C@@H](C)C(=O)N2C` [echinomycin, reference compound], in data set [1], the HIF-1a inhibitory activity result was “HIF-1a inhibitory activity”. Further, the “amount of activated caspase-3, relative to control group (100±45)” value in [2] amounted to 362±176. For the same compound, the “toxicity in phase 2 clinical trial” value in [3] is recorded as “toxicity”. Also, the “body weight on day 28 of administration” value in [4] (400 ng intraperitoneally each day) was “Large reduction in body weight was not found”.

For the compound `CC(C)[C@H]1C(=O)OC[C@@H](NC(=O)c2nc3ccccc3cc2O)C(=O)N[C@@H](C)C(=O)N(C)[C@H]2CSC[C@@H](C(=O)N1C)N(C)C(=O)[C@H](C)NC(=O)[C@H](NC(=O)c1nc3ccccc3cc1O)COC(=O)[C@H](C(C)C)N(C)C2=O` [compound 12], in data set [5], the “number of cells that underwent cell death (TUNEL-stained cells)” value is “significantly larger than those for the control group and the group with administration of echinomycin”. In addition, the “growth-suppressing activity at low concentration compared with echinomycin” value in [6] (10 ng/mL) and in [9] (10 ng/mL) was “higher than that of echinomycin” throughout. In addition, the “absorbance (cell density, OD at 510 nm) versus control; activity to suppress the growth of cancer cells” value in data set [6] (100 ng/mL or more), in [7] and in data set [9] (100 ng/mL or more) was “significant difference in absorbance” throughout. Also, in [2], the “amount of activated caspase-3, relative to control group (100±45)” value was 1107±273. In addition, the “tumor size reduction compared with echinomycin” value in data set [8] (40 ng versus 400 ng of echinomycin, cell line not given) is “comparable with that of administration of 400 ng of echinomycin”. The “size of transplanted tumor” value in data set [8] (any of the loadings, intraperitoneally each day, SW620 (FIG. 2-2)) is “reduction in the size of transplanted tumor”; in data set [10] (any of the loadings, intraperitoneally each day) it was “reduction in the size of transplanted tumor”. Further, in data set [4] (setting [11]), the “body weight on day 28 of administration” value is reported as “Large reduction in body weight was not found”.

On to `CC(C)[C@H]1C(=O)OC[C@@H](NC(=O)c2cnc3ccccc3n2)C(=O)N[C@@H](C)C(=O)N(C)[C@H]2CSC[C@@H](C(=O)N1C)N(C)C(=O)[C@H](C)NC(=O)[C@H](NC(=O)c1cnc3ccccc3n1)COC(=O)[C@H](C(C)C)N(C)C2=O` [compound 11], for which the “size of transplanted tumor” value in data set [10] (setting [11]) was “Reduction in the size of transplanted tumor”. For the same compound, the “tumor size reduction compared with echinomycin” value in data set [10] (500 ng versus 400 ng of echinomycin) was “comparable with that provided by administration of 400 ng of echinomycin”. For the same compound, the “body weight on day 28 of administration” value in data set [4] (setting [11]) is on record as “Large reduction in body weight was not found”.
